Measured values reported in ChEMBL document CHEMBL1201862, “PubChem BioAssay data set” (2004).
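Exposure lasted 48 hours, with cells grown in 96-well plates and compounds tested at five concentrations. Here, GI50 denotes the concentration required for 50% inhibition of growth.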 Active and inactive are the calls of the source. Rule as the data show it: active = GI50 up to about 1.1 µM and inactive = higher.

Experiments:
Assay in all cases: DTP human tumour cell line panel, 48 h
CAKI-1 = test system: CAKI-1
CCRF-CEM = test system: CCRF-CEM
DU-145 = test system: DU-145
EKVX = test system: EKVX
HCT-116 = test system: HCT-116
HT-29 = test system: HT-29
OVCAR-3 = test system: OVCAR-3
OVCAR-4 = test system: OVCAR-4
OVCAR-5 = test system: OVCAR-5
OVCAR-8 = test system: OVCAR-8
PC-3 = test system: PC-3
SF-295 = test system: SF-295
SF-539 = test system: SF-539
SK-MEL-28 = test system: SK-MEL-28
SK-MEL-2 = test system: SK-MEL-2
SK-OV-3 = test system: SK-OV-3
SR = test system: SR
SW-620 = test system: SW-620
T47D = test system: T47D
UO-31 = test system: UO-31

Measured: GI50

O=S(=O)(Oc1ccc2oc3ccccc3c2c1-c1c(OS(=O)(=O)C(F)(F)F)ccc2oc3ccccc3c12)C(F)(F)F
inactive: CAKI-1 > 100 µM | CCRF-CEM > 100 µM | DU-145 > 100 µM | EKVX > 100 µM | HCT-116 > 100 µM | HT-29 > 100 µM | OVCAR-3 > 100 µM | OVCAR-4 > 100 µM | OVCAR-5 > 100 µM | OVCAR-8 > 100 µM | PC-3 > 100 µM | SF-295 > 100 µM | SF-539 > 100 µM | SK-MEL-28 > 100 µM | SK-MEL-2 > 100 µM | SK-OV-3 > 100 µM | SR > 100 µM | SW-620 > 100 µM | T47D > 100 µM | UO-31 > 100 µM

COc1ccccc1C1SCC(=O)N1c1ccc(-n2c(-c3ccccc3)nc3ccccc3c2=O)cc1 (stereo not given)
inactive: CAKI-1 82 µM | CCRF-CEM 44.5 µM | DU-145 52.5 µM | EKVX > 100 µM | HCT-116 57.1 µM | HT-29 64.1 µM | OVCAR-3 > 100 µM | OVCAR-4 15.8 µM | OVCAR-5 > 100 µM | OVCAR-8 60.4 µM | PC-3 80.4 µM | SF-295 75.5 µM | SF-539 > 100 µM | SK-MEL-28 > 100 µM | SK-MEL-2 > 100 µM | SK-OV-3 > 100 µM | SR 81.7 µM | SW-620 63.5 µM | T47D 12.9 µM | UO-31 9.1 µM

C=C1CC2(CC(c3ccccc3OC)OC(c3ccccc3OC)C2)OC1=O (stereo not given)
inactive: CAKI-1 2.47 µM | CCRF-CEM 1.71 µM | DU-145 7.8 µM | EKVX 14.6 µM | HCT-116 1.78 µM | HT-29 2.06 µM | OVCAR-3 1.87 µM | OVCAR-4 4.35 µM | OVCAR-5 7.46 µM | OVCAR-8 1.8 µM | PC-3 2.06 µM | SF-295 7.38 µM | SF-539 2.15 µM | SK-MEL-28 1.45 µM | SK-MEL-2 1.91 µM | SK-OV-3 12.8 µM | SR 1.84 µM | SW-620 1.72 µM | T47D 1.72 µM | UO-31 1.52 µM

COc1cc(/C=N\c2nc(-c3ccc(NS(=O)(=O)c4ccc(Cl)c(OC)c4)cc3)cs2)ccc1O
inactive: CAKI-1 > 100 µM | CCRF-CEM 30.1 µM | DU-145 > 100 µM | EKVX 26.7 µM | HCT-116 37.7 µM | HT-29 > 100 µM | OVCAR-3 69.5 µM | OVCAR-4 35.2 µM | OVCAR-5 > 100 µM | OVCAR-8 50.1 µM | PC-3 50.8 µM | SF-295 > 100 µM | SF-539 47.5 µM | SK-MEL-28 33.2 µM | SK-MEL-2 32.2 µM | SK-OV-3 > 100 µM | SR 30.8 µM | SW-620 41.1 µM | T47D 17.4 µM | UO-31 60.8 µM

N=C(N)NCCCC(=O)O
inactive: CAKI-1 > 100 µM | CCRF-CEM > 100 µM | DU-145 > 100 µM | EKVX > 100 µM | HCT-116 > 100 µM | HT-29 > 100 µM | OVCAR-3 > 100 µM | OVCAR-4 > 100 µM | OVCAR-5 > 100 µM | OVCAR-8 > 100 µM | PC-3 > 100 µM | SF-295 > 100 µM | SF-539 > 100 µM | SK-MEL-28 > 100 µM | SK-MEL-2 > 100 µM | SK-OV-3 > 100 µM | SR > 100 µM | SW-620 > 100 µM | T47D > 100 µM | UO-31 > 100 µM
